Data as given in patent publication US8551999B2, “Heterocyclic compound and pharmaceutical composition thereof” (Otsuka Pharmaceutical Co., Ltd., priority 2007, dated 2013).

Row | melting point | Structure (SMILES)
1 | 163 to 168 °C | Br.CCN(C(=S)Nc1ccc(Cl)c(Cl)c1)c1ccc(Oc2ccc3c(c2)cc(C(=O)N2CCN(Cc4ccccc4)CC2)n3C)nc1 [Example 581, 1-{6-[2-(4-Benzylpiperazine-1-carbonyl)-1-methyl-1H-indol-5-yl-oxy]pyridin-3-yl}-3-(3,4-dichlorophenyl)-1-ethylthiourea hydrobromide]
2 | 249 to 251 °C | Br.COc1ccc(CN2CCN(C(=O)c3cc4cc(Oc5ccc(NC(=O)c6ccc(C(F)(F)F)cc6C)cn5)ccc4n3C)CC2)cc1 [Example 14, N-(6-{2-[4-(4-Methoxybenzyl)piperazine-1-carbonyl]-1-methyl-1H-indol-5-yloxy}pyridin-3-yl)-2-methyl-4-trifluoromethylbenzamide hydrobromide]
3 | 229.1 to 230.8 °C | Br.Cn1c(C(=O)N2CCN(Cc3ccc(OCC(F)F)cc3)CC2)cc2cc(Oc3ccc(NC(=O)c4ccc(C(F)(F)F)cc4)cn3)ccc21 [Example 462, N-[6-(2-{4-[4-(2,2-Difluoroethoxy)benzyl]piperazine-1-carbonyl}-1-methyl-1H-indol-5-yloxy)pyridin-3-yl]-4-trifluoromethyl-benzamide hydrobromide]
4 | 196.9 to 198.6 °C | Br.CN(C(=O)c1ccc(OC(F)F)cc1)c1ccc(Oc2ccc3cc(C(=O)N4CCN(Cc5ccc(OCC(F)F)cc5)CC4)n(C)c3c2)nc1 [Example 283, N-[6-(2-{4-[4-(2,2-Difluoroethoxy)benzyl]piperazine-1-carbonyl}-1-methyl-1H-indol-6-yloxy)pyridin-3-yl]-4-difluoromethoxy-N-methylbenzamide hydrobromide]
5 | 262 to 265 °C | Br.CC(C)Cc1ccc(CN2CCN(C(=O)c3cc4ccc(Oc5ccc(N(C)C(=O)c6ccc(C(F)(F)F)cc6)cn5)cc4n3C)CC2)cc1 [Example 430, N-(6-{2-[4-(4-Isobutylbenzyl)piperazine-1-carbonyl]-1-methyl-1H-indol-6-yloxy}pyridin-3-yl)-N-methyl-4-trifluoromethylbenzamide hydrobromide]
6 | 241.3 to 243.9 °C | Br.Cn1c(C(=O)N2CCN(Cc3ccc4c(c3)OCO4)CC2)cc2ccc(Oc3ccc(NC(=O)c4ccc(Cl)c(Cl)c4)cn3)cc21 [Example 257, N-{6-[2-(4-Benzo[1,3]dioxol-5-ylmethylpiperazine-1-carbonyl)-1-methyl-1H-indol-6-yloxy]pyridin-3-yl}-3,4-dichlorobenzamide hydrobromide]
7 | 270.2 to 272.2 °C | CC(C)CN1CCN(C(=O)c2cc3ccc(Oc4ccc(NC(=O)c5ccc(C(F)(F)F)cc5)cn4)cc3n2C)CC1.Cl
8 | 214.5 to 218.5 °C (dec.) | Br.Cc1ccc(S(=O)(=O)N(C)c2ccc(Oc3ccc4cc(C(=O)N5CCN(Cc6ccc(OC(F)F)cc6)CC5)n(C)c4c3)nc2)cc1 [Example 532, N-(6-{2-[4-(4-Difluoromethoxybenzyl)piperazine-1-carbonyl]-1-methyl-1H-indol-6-yloxy}pyridin-3-yl)-4,N-dimethylbenzene-sulfonamide hydrobromide]
9 | 165.9 to 167.2 °C | CN(c1ccc(Oc2ccc3cc(C(=O)N4CCN(Cc5ccc(OCC(F)(F)F)cc5)CC4)n(C)c3c2)nc1)S(=O)(=O)c1ccc(Cl)c(Cl)c1 [Example 68, 3,4-Dichloro-N-methyl-N-[6-(1-methyl-2-{4-[4-(2,2,2-trifluoro-ethoxy)benzyl]piperazine-1-carbonyl}-1H-indol-6-yloxy)pyridin-3-yl]benzenesulfonamide]
10 | 210 to 212 °C | Br.Cn1c(C(=O)N2CCN(Cc3ccc4c(c3)OCO4)CC2)cc2cc(Oc3ccc(NS(=O)(=O)c4ccc(C(F)(F)F)cc4)cn3)ccc21 [Example 65, N-{6-[2-(4-Benzo[1,3]dioxol-5-ylmethylpiperazine-1-carbonyl)-1-methyl-1H-indol-5-yloxy]pyridin-3-yl}-4-trifluoromethylbenzene-sulfonamide hydrobromide]
11 | 251 to 254 °C | Br.CC(C)CN1CCN(C(=O)c2cc3cc(Oc4ccc(NC(=O)c5ccc(Cl)c(Cl)c5)cn4)ccc3n2C)CC1 [Example 567, 3,4-Dichloro-N-{6-[2-(4-isobutylpiperazine-1-carbonyl)-1-methyl-1H-indol-5-yloxy]pyridin-3-yl}benzamide hydrobromide]
12 | 228.7 to 230.4 °C | CN(C(=O)c1ccc(C(F)(F)F)cc1F)c1ccc(Oc2ccc3cc(C(=O)N4CCN(Cc5ccc(OC(F)F)cc5)CC4)n(C)c3c2)nc1.Cl
13 | 234.6 to 235.2 °C | Br.CN(c1ccc(Oc2ccc3cc(C(=O)N4CCN(Cc5ccc(OCC(F)(F)F)cc5)CC4)n(C)c3c2)nc1)S(=O)(=O)c1ccccc1 [Example 30, N-Methyl-N-[6-(1-methyl-2-{4-[4-(2,2,2-trifluoroethoxy)benzyl]-piperazine-1-carbonyl}-1H-indol-6-yloxy)pyridin-3-yl]benzene-sulfonamide hydrobromide]
14 | 244 to 249 °C (dec.) | Br.COCc1ccc(CN2CCN(C(=O)c3cc4cc(Oc5ccc(NC(=O)c6ccc(Cl)c(Cl)c6)cn5)ccc4n3C)CC2)cc1 [Example 375, 3,4-Dichloro-N-(6-{2-[4-(4-methoxymethylbenzyl)piperazine-1-carbonyl]-1-methyl-1H-indol-5-yloxy}pyridin-3-yl)benzamide hydrobromide]
15 | 214 to 219 °C (dec.) | Br.Cn1c(C(=O)N2CCN(Cc3ccc(OCC(F)(F)F)cc3)CC2)cc2cc(Oc3ccc(NC(=O)c4ccc(C(F)(F)F)cc4O)cn3)ccc21 [Example 267, 2-Hydroxy-N-[6-(1-methyl-2-{4-[4-(2,2,2-trifluoroethoxy)benzyl]-piperazine-1-carbonyl}-1H-indol-5-yloxy)pyridin-3-yl]-4-tri-fluoromethylbenzamide hydrobromide]

Further lines, the molecule ahead of its results:

Row | Structure (SMILES) | melting point
16 | COc1ccc(CN2CCN(C(=O)c3cc4cc(Oc5ccc(NC(=O)c6ccc(C(F)(F)F)cc6)cn5)ccc4n3C)[C@@H](C)C2)cc1.O=C(O)C(=O)O [Example 396, N-(6-{2-[(S)-4-(4-Methoxybenzyl)-2-methylpiperazine-1-carbonyl]-1-methyl-1H-indol-5-yloxy}pyridin-3-yl)-4-trifluoromethyl-benzamide oxalate] | 159 to 160 °C
17 | COc1ccccc1/C=C/CN1CCN(C(=O)c2cc3cc(Oc4ccc(NC(=O)c5ccc(C(F)(F)F)cc5)cn4)ccc3n2C)CC1.CS(=O)(=O)O [Example 358, N-[6-(2-{4-[(E)-3-(2-Methoxyphenyl)allyl]piperazine-1-carbonyl}-1-methyl-1H-indol-5-yloxy)pyridin-3-yl]-4-trifluoromethyl-benzamide methanesulfonate] | 268 to 271 °C (dec.)
18 | CCOc1ccc(CN2CCN(C(=O)c3cc4cc(Oc5ccc(N(C)C(=O)c6ccc(C(F)(F)F)cc6)cn5)ccc4n3C)CC2)cn1.O=C(O)/C=C\C(=O)O [Example 423, N-(6-{2-[4-(6-Ethoxypyridin-3-ylmethyl)piperazine-1-carbonyl]-1-methyl-1H-indol-5-yloxy}pyridin-3-yl)-N-methyl-4-trifluoromethyl-benzamide maleate] | 149 to 151 °C
19 | Br.CN(C(=O)c1ccc(OC(F)F)cc1)c1ccc(Oc2ccc3cc(C(=O)N4CCN(Cc5ccc(OC(F)F)cc5)CC4)n(C)c3c2)nc1 [Example 282, 4-Difluoromethoxy-N-(6-{2-[4-(4-difluoromethoxybenzyl)piperazine-1-carbonyl]-1-methyl-1H-indol-6-yloxy}pyridin-3-yl)-N-methyl-benzamide hydrobromide] | 198.7 to 200.5 °C
20 | CCCOc1ccc(CN2CCN(C(=O)c3cc4ccc(Oc5ccc(N(C)C(=O)c6ccc(C(F)(F)F)cc6F)cn5)cc4n3C)CC2)cc1.Cl | 247.1 to 249.2 °C
21 | CCCCCCCCOc1ccc(CN2CCN(C(=O)c3cc4cc(Oc5ccc(N(C)C(=O)c6ccc(C(F)(F)F)cc6)cn5)ccc4n3C)CC2)cc1.O=C(O)/C=C\C(=O)O [Example 414, N-Methyl-N-(6-{1-methyl-2-[4-(4-octyloxybenzyl)piperazine-1-carbonyl]-1H-indol-5-yloxy}pyridin-3-yl)-4-trifluoromethyl-benzamide maleate] | 125 to 126 °C
22 | Br.CC(C)Oc1ccc(CN2CCN(C(=O)c3cc4ccc(Oc5ccc(NC(=O)c6ccc(Cl)c(Cl)c6)cn5)cc4n3C)CC2)cn1 [Example 466, 3,4-Dichloro-N-(6-{2-[4-(6-isopropoxypyridin-3-ylmethyl)-piperazine-1-carbonyl]-1-methyl-1H-indol-6-yloxy}pyridin-3-yl)-benzamide hydrobromide] | 236.9 to 240.4 °C
23 | Br.Cc1cc(Oc2ccc3cc(C(=O)N4CCN(Cc5ccc(OC(F)F)cc5)CC4)n(C)c3c2)ncc1N(C)S(=O)(=O)c1ccc(Cl)c(Cl)c1 [Example 311, 3,4-Dichloro-N-(6-{2-[4-(4-difluoromethoxybenzyl)piperazine-1-carbonyl]-1-methyl-1H-indol-6-yloxy}-4-methylpyridin-3-yl)-N-methylbenzenesulfonamide hydrobromide] | 213.5 to 215.3 °C
24 | Cc1ccc(S(=O)(=O)N(C)c2ccc(Oc3ccc4c(c3)cc(C(=O)N3CCN(Cc5ccc(OCC(F)(F)F)cc5)CC3)n4C)nc2)cc1.Cl | 239.1 to 239.8 °C
25 | CC(C)CCOc1ccc(CN2CCN(C(=O)c3cc4ccc(Oc5ccc(N(C)S(=O)(=O)c6ccc(Cl)c(Cl)c6)cn5)cc4n3C)CC2)cc1 [Example 516, 3,4-Dichloro-N-methyl-N-[6-(1-methyl-2-{4-[4-(3-methylbutoxy)-benzyl]piperazine-1-carbonyl}-1H-indol-6-yloxy)pyridin-3-yl]-benzenesulfonamide] | 145.9 to 147.1 °C
26 | Br.CC(C)c1ccc(CN2CCN(C(=O)c3cc4ccc(Oc5ccc(N(C)C(=O)c6ccc(C(F)(F)F)cc6)cn5)cc4n3C)CC2)cc1 [Example 429, N-(6-{2-[4-(4-Isopropylbenzyl)piperazine-1-carbonyl]-1-methyl-1H-indol-6-yloxy}pyridin-3-yl)-N-methyl-4-trifluoromethylbenzamide hydrobromide] | 255 to 258 °C
27 | CCCOc1ccc(CN2CCN(C(=O)c3cc4ccc(Oc5ccc(N(C)C(=O)c6ccc(C)cc6)cn5)cc4n3C)CC2)cc1.Cl | 231.2 to 231.8 °C
28 | Cn1c(C(=O)N2CCN(C(=O)c3ccccn3)CC2)cc2cc(Oc3ccc(NC(=O)c4ccc(C(F)(F)F)cc4)cn3)ccc21 [Example 239, N-(6-{1-Methyl-2-[4-(pyridine-2-carbonyl)piperazine-1-carbonyl]-1H-indol-5-yloxy}pyridin-3-yl)-4-trifluoromethylbenzamide] | 162 to 164 °C
